For 1 compound, Kd results are on record in PMC12631102, “SYT4 Interacts with PSMC6 to Facilitate Malignant Progression in Gastric Carcinoma via Activating Wnt/β-catenin Signaling” (International Journal of Biological Sciences, 2025).

The target of the assay is T1, Synaptotagmin-4 (SYT4) (Homo sapiens, UniProt Q9H2B2).
T1 construct: Recombinant SYT4 protein
T1 sequence (Q9H2B2 1-425): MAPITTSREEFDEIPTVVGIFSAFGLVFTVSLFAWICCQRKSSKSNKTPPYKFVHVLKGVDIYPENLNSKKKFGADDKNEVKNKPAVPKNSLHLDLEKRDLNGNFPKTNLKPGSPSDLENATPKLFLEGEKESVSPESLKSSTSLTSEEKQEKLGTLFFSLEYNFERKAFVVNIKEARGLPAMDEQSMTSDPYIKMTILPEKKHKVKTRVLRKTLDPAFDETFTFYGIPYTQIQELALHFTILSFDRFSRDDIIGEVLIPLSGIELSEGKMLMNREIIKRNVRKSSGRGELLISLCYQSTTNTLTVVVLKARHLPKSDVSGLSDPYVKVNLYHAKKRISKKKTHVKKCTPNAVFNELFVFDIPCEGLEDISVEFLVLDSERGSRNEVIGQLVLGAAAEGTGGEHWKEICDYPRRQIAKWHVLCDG
In words: SPR (Biacore T200, SYT4 immobilized on CM5 chip). The format is binding.

The structures appear in SMILES notation.

Turning to `C=CC(=O)Nc1ccc2[nH]c(=O)n(C3CCN(Cc4ccc(-c5nc6cc[nH]c(=O)c6cc5-c5ccccc5)cc4)CC3)c2c1` [borussertib], the Kd was found to be 16 µM.
